ChEMBL document CHEMBL1909046, “DrugMatrix in vitro pharmacology data”

Target: T1, B2 bradykinin receptor (Homo sapiens, UniProt P30411); further: in other assays of this panel Not Active means under 50% inhibition at 10 µM
T1 sequence (P30411 whole entry): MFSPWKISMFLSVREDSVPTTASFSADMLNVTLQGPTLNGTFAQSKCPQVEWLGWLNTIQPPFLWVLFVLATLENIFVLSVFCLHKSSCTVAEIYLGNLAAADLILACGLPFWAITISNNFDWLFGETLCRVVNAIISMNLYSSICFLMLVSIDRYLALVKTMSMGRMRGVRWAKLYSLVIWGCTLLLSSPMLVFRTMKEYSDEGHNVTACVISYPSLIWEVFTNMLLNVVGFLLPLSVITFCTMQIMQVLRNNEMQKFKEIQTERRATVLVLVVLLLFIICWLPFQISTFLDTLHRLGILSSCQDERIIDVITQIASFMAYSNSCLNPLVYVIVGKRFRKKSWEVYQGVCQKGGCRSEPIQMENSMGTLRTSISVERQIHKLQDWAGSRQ
Type: cell membranes, Membrane
Conditions: chem-1

SMILES	IC50
Cn1c(=O)c2[nH]cnc2n(C)c1=O.Cn1c(=O)c2[nH]cnc2n(C)c1=O.NCCN [AMINOPHYLLINE]	Not Active
CCC1(CCC(C)C)C(=O)NC(=O)NC1=O [AMOBARBITAL]	Not Active
CC(=O)Oc1ccc(C(c2ccc(OC(C)=O)cc2)c2ccccn2)cc1 [BISACODYL]	Not Active
CN/C(=N\CCSCc1nc[nH]c1C)NC#N [CIMETIDINE]	Not Active
CCC(=O)O[C@]1(C(=O)CCl)[C@@H](C)C[C@H]2[C@@H]3CCC4=CC(=O)C=C[C@]4(C)[C@@]3(F)[C@@H](O)C[C@@]21C [CLOBETASOL PROPIONATE]	Not Active
C[C@@H]1C[C@H]2[C@@H]3CCC4=CC(=O)C=C[C@]4(C)[C@@]3(F)[C@@H](O)C[C@]2(C)[C@H]1C(=O)CO [DESOXIMETASONE]	Not Active
C[C@@H]1C[C@H]2[C@@H]3CCC4=CC(=O)C=C[C@]4(C)[C@@]3(F)[C@@H](O)C[C@]2(C)[C@@]1(O)C(=O)CO [DEXAMETHASONE]	Not Active
OC(CCCN1CCCCC1)(c1ccccc1)c1ccccc1 [DIPHENIDOL]	Not Active

Test system: not listed separately
Experiment: DRUGMATRIX: Calcium Channel Type L, Dihydropyridine radioligand binding (ligand: [3H] Nitrendipine)
Type: cell membranes, Rattus norvegicus, Wistar, Cerebral cortex, Membrane
Conditions: Not Active = under 50% inhibition at 10 µM

SMILES	IC50	Ki
Cn1c(=O)c2[nH]cnc2n(C)c1=O.Cn1c(=O)c2[nH]cnc2n(C)c1=O.NCCN [AMINOPHYLLINE]	Not Active	Not Active
CCC1(CCC(C)C)C(=O)NC(=O)NC1=O [AMOBARBITAL]	Not Active	Not Active
CC(=O)Oc1ccc(C(c2ccc(OC(C)=O)cc2)c2ccccn2)cc1 [BISACODYL]	Not Active	Not Active
CN/C(=N\CCSCc1nc[nH]c1C)NC#N [CIMETIDINE]	Not Active	Not Active
CCC(=O)O[C@]1(C(=O)CCl)[C@@H](C)C[C@H]2[C@@H]3CCC4=CC(=O)C=C[C@]4(C)[C@@]3(F)[C@@H](O)C[C@@]21C [CLOBETASOL PROPIONATE]	Not Active	Not Active
C[C@@H]1C[C@H]2[C@@H]3CCC4=CC(=O)C=C[C@]4(C)[C@@]3(F)[C@@H](O)C[C@]2(C)[C@H]1C(=O)CO [DESOXIMETASONE]	Not Active	Not Active
C[C@@H]1C[C@H]2[C@@H]3CCC4=CC(=O)C=C[C@]4(C)[C@@]3(F)[C@@H](O)C[C@]2(C)[C@@]1(O)C(=O)CO [DEXAMETHASONE]	Not Active	Not Active
OC(CCCN1CCCCC1)(c1ccccc1)c1ccccc1 [DIPHENIDOL]	Not Active	Not Active

Test system: not listed separately
Experiment: DRUGMATRIX: Sigma2 radioligand binding (ligand: [3H] Ifenprodil)
Type: cell membranes, Rattus norvegicus, Wistar, Brain, Membrane
Conditions: Not Active = under 50% inhibition at 10 µM

SMILES	IC50	Ki
Cn1c(=O)c2[nH]cnc2n(C)c1=O.Cn1c(=O)c2[nH]cnc2n(C)c1=O.NCCN [AMINOPHYLLINE]	Not Active	Not Active
CCC1(CCC(C)C)C(=O)NC(=O)NC1=O [AMOBARBITAL]	Not Active	Not Active
CC(=O)Oc1ccc(C(c2ccc(OC(C)=O)cc2)c2ccccn2)cc1 [BISACODYL]	Not Active	Not Active
CN/C(=N\CCSCc1nc[nH]c1C)NC#N [CIMETIDINE]	Not Active	Not Active
CCC(=O)O[C@]1(C(=O)CCl)[C@@H](C)C[C@H]2[C@@H]3CCC4=CC(=O)C=C[C@]4(C)[C@@]3(F)[C@@H](O)C[C@@]21C [CLOBETASOL PROPIONATE]	Not Active	Not Active
C[C@@H]1C[C@H]2[C@@H]3CCC4=CC(=O)C=C[C@]4(C)[C@@]3(F)[C@@H](O)C[C@]2(C)[C@H]1C(=O)CO [DESOXIMETASONE]	Not Active	Not Active
C[C@@H]1C[C@H]2[C@@H]3CCC4=CC(=O)C=C[C@]4(C)[C@@]3(F)[C@@H](O)C[C@]2(C)[C@@]1(O)C(=O)CO [DEXAMETHASONE]	Not Active	Not Active
OC(CCCN1CCCCC1)(c1ccccc1)c1ccccc1 [DIPHENIDOL]	Not Active	Not Active

Test system: not listed separately
Experiment: DRUGMATRIX: Nicotinic Acetylcholine radioligand binding (ligand: [125I] Epibatidine)
Type: cell membranes, Membrane
Conditions: imr-32; Not Active = under 50% inhibition at 10 µM

SMILES	IC50	Ki
Cn1c(=O)c2[nH]cnc2n(C)c1=O.Cn1c(=O)c2[nH]cnc2n(C)c1=O.NCCN [AMINOPHYLLINE]	Not Active	Not Active
CCC1(CCC(C)C)C(=O)NC(=O)NC1=O [AMOBARBITAL]	Not Active	Not Active
CC(=O)Oc1ccc(C(c2ccc(OC(C)=O)cc2)c2ccccn2)cc1 [BISACODYL]	Not Active	Not Active
CN/C(=N\CCSCc1nc[nH]c1C)NC#N [CIMETIDINE]	Not Active	Not Active
CCC(=O)O[C@]1(C(=O)CCl)[C@@H](C)C[C@H]2[C@@H]3CCC4=CC(=O)C=C[C@]4(C)[C@@]3(F)[C@@H](O)C[C@@]21C [CLOBETASOL PROPIONATE]	Not Active	Not Active
C[C@@H]1C[C@H]2[C@@H]3CCC4=CC(=O)C=C[C@]4(C)[C@@]3(F)[C@@H](O)C[C@]2(C)[C@H]1C(=O)CO [DESOXIMETASONE]	Not Active	Not Active
C[C@@H]1C[C@H]2[C@@H]3CCC4=CC(=O)C=C[C@]4(C)[C@@]3(F)[C@@H](O)C[C@]2(C)[C@@]1(O)C(=O)CO [DEXAMETHASONE]	Not Active	Not Active
OC(CCCN1CCCCC1)(c1ccccc1)c1ccccc1 [DIPHENIDOL]	Not Active	Not Active

Target: Protein kinase C alpha type (Homo sapiens, UniProt P17252);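 further: inhibition of PKCalpha kinase activity measured in an enzyme assay with histone as the phosphorylation substrate; in other assays of this panel Not Active means under 50% inhibition at 10 µM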
Type: cell-based
Conditions: sf9

SMILES	IC50
Cn1c(=O)c2[nH]cnc2n(C)c1=O.Cn1c(=O)c2[nH]cnc2n(C)c1=O.NCCN [AMINOPHYLLINE]	Not Active
CCC1(CCC(C)C)C(=O)NC(=O)NC1=O [AMOBARBITAL]	Not Active
CC(=O)Oc1ccc(C(c2ccc(OC(C)=O)cc2)c2ccccn2)cc1 [BISACODYL]	Not Active
CN/C(=N\CCSCc1nc[nH]c1C)NC#N [CIMETIDINE]	Not Active
CCC(=O)O[C@]1(C(=O)CCl)[C@@H](C)C[C@H]2[C@@H]3CCC4=CC(=O)C=C[C@]4(C)[C@@]3(F)[C@@H](O)C[C@@]21C [CLOBETASOL PROPIONATE]	Not Active
C[C@@H]1C[C@H]2[C@@H]3CCC4=CC(=O)C=C[C@]4(C)[C@@]3(F)[C@@H](O)C[C@]2(C)[C@H]1C(=O)CO [DESOXIMETASONE]	Not Active
C[C@@H]1C[C@H]2[C@@H]3CCC4=CC(=O)C=C[C@]4(C)[C@@]3(F)[C@@H](O)C[C@]2(C)[C@@]1(O)C(=O)CO [DEXAMETHASONE]	Not Active
OC(CCCN1CCCCC1)(c1ccccc1)c1ccccc1 [DIPHENIDOL]	Not Active

Target: 5-hydroxytryptamine receptor 1B (Rattus norvegicus, UniProt P28564); further: in other assays of this panel Not Active means under 50% inhibition at 10 µM
Type: cell membranes, Wistar, Cerebral cortex, Membrane
Conditions: not given

Chain of 5-hydroxytryptamine receptor 1B (P28564 whole entry): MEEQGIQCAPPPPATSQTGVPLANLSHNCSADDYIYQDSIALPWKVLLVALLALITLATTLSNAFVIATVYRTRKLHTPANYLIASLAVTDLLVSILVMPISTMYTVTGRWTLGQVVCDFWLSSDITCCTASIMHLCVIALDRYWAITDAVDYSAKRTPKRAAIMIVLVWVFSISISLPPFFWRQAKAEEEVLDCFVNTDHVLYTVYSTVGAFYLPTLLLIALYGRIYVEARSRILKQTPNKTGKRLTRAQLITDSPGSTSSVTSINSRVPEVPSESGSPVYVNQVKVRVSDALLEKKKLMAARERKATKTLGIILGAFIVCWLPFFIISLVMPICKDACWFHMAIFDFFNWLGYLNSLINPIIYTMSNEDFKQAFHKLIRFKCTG

SMILES	IC50
Cn1c(=O)c2[nH]cnc2n(C)c1=O.Cn1c(=O)c2[nH]cnc2n(C)c1=O.NCCN [AMINOPHYLLINE]	Not Active
CCC1(CCC(C)C)C(=O)NC(=O)NC1=O [AMOBARBITAL]	Not Active
CC(=O)Oc1ccc(C(c2ccc(OC(C)=O)cc2)c2ccccn2)cc1 [BISACODYL]	Not Active
CN/C(=N\CCSCc1nc[nH]c1C)NC#N [CIMETIDINE]	Not Active
CCC(=O)O[C@]1(C(=O)CCl)[C@@H](C)C[C@H]2[C@@H]3CCC4=CC(=O)C=C[C@]4(C)[C@@]3(F)[C@@H](O)C[C@@]21C [CLOBETASOL PROPIONATE]	Not Active
C[C@@H]1C[C@H]2[C@@H]3CCC4=CC(=O)C=C[C@]4(C)[C@@]3(F)[C@@H](O)C[C@]2(C)[C@H]1C(=O)CO [DESOXIMETASONE]	Not Active
C[C@@H]1C[C@H]2[C@@H]3CCC4=CC(=O)C=C[C@]4(C)[C@@]3(F)[C@@H](O)C[C@]2(C)[C@@]1(O)C(=O)CO [DEXAMETHASONE]	Not Active
OC(CCCN1CCCCC1)(c1ccccc1)c1ccccc1 [DIPHENIDOL]	Not Active

Target: T2, Cytochrome P450 2A6 (Homo sapiens, UniProt P11509); further: in other assays of this panel Not Active means under 50% inhibition at 10 µM
T2 sequence (P11509 whole entry): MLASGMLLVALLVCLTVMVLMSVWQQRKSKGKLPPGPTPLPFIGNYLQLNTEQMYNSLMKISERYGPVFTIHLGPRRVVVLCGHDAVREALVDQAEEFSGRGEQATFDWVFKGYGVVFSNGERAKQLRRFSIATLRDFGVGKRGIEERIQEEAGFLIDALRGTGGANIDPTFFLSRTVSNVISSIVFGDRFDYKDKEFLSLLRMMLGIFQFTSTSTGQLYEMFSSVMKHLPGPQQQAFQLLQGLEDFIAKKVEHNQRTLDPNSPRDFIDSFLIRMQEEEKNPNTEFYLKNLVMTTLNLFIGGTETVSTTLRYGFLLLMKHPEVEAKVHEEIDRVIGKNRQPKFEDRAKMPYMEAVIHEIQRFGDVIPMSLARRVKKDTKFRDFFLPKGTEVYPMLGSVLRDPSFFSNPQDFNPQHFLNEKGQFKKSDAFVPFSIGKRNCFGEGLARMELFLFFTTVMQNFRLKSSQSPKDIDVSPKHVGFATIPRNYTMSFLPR
Conditions: bti-tn-5b1-4

SMILES	IC50	Ki
Cn1c(=O)c2[nH]cnc2n(C)c1=O.Cn1c(=O)c2[nH]cnc2n(C)c1=O.NCCN [AMINOPHYLLINE]	Not Active	Not Active
CCC1(CCC(C)C)C(=O)NC(=O)NC1=O [AMOBARBITAL]	Not Active	Not Active
CC(=O)Oc1ccc(C(c2ccc(OC(C)=O)cc2)c2ccccn2)cc1 [BISACODYL]	Not Active	Not Active
CN/C(=N\CCSCc1nc[nH]c1C)NC#N [CIMETIDINE]	Not Active	Not Active
CCC(=O)O[C@]1(C(=O)CCl)[C@@H](C)C[C@H]2[C@@H]3CCC4=CC(=O)C=C[C@]4(C)[C@@]3(F)[C@@H](O)C[C@@]21C [CLOBETASOL PROPIONATE]	Not Active	Not Active
C[C@@H]1C[C@H]2[C@@H]3CCC4=CC(=O)C=C[C@]4(C)[C@@]3(F)[C@@H](O)C[C@]2(C)[C@H]1C(=O)CO [DESOXIMETASONE]	Not Active	Not Active
C[C@@H]1C[C@H]2[C@@H]3CCC4=CC(=O)C=C[C@]4(C)[C@@]3(F)[C@@H](O)C[C@]2(C)[C@@]1(O)C(=O)CO [DEXAMETHASONE]	Not Active	Not Active
OC(CCCN1CCCCC1)(c1ccccc1)c1ccccc1 [DIPHENIDOL]	Not Active	Not Active
